Test results from PMC4310329, “The length of a lantibiotic hinge region has profound influence on antimicrobial activity and host specificity” (Frontiers in Microbiology, 2015).

How the values were obtained:
L. lactis MG1363 = experiment: Agar well diffusion assay; type: cell-based, Lactococcus lactis; conditions: relative to wt
Protocol: (§1) L. lactis strains were cultured in M17 broth supplemented with 0.5% (w/v) glucose (GM17) or GM17 agar for genetic manipulation or in minimal expression medium (MEM) for protein expression at 30°C (Rink et al., [2005]). E. faecalis, S. aureus, S. pneumonia, and L. monocytogenes were grown in GM17 at 37°C or GM17 agar at different temperatures for agar diffusion assay. M. luteus was grown in Luria-Bertani broth shaken (200 rpm) at 30°C or LB agar at 20°C for agar diffusion assay. Bacillus strains were cultured in Brain Heart Infusion (BHI) shaken (200 rpm) or BHI agar at different temperatures for agar diffusion assay.
(§2) For the agar well diffusion assay, the same cultures as in the MIC value test were used and diluted 200 times with solid media. Identical sizes of wells (7.5 mm diameter) were made and 2 μg of hinge region analogs dissolved in 20 μl 0.05% acetic acid were added. The plates were incubated at different temperatures for at least 1 day until apparent halos appeared. For activity test at low temperature, the indicators were diluted in the same way but poured into smaller plates (52 mm diameter). The plates were incubated at 4°C overnight before the peptides were added. B. sporothermodurans IC4 and B. cereus 4153 were first incubated with the peptides at 4°C for 2 weeks then moved to 30°C and incubated overnight. The diameters of the halos were measured.
(§3) The antimicrobial activity of the hinge region analogs in solid media were tested by an agar well diffusion assay. The diameters of the halos were measured and the residual activity of the analogs were estimated according to the formula of the relationship between the concentration of nisin and the sizes of halos. We made use of the fact that the size of the halo is directly related to the log of nisin concentration. Of course this is an estimate of activity of the variants because any changes in diffusion of the variant bacteriocin or growth rates of indicator bacteria during the assay could also affect the size of the halo. (Table 5 and Supplementary Figure 1). The plates were shown in supplementary data (Supplementary Figures 2–8). […] And against L. lactis at 20°C, the inhibition zone was larger than nisin. […] The M. luteus grows quite fast at room temperature and only the +2 variant retained 55% of the activity of nisin. […]
(§4) To evaluate the activity of nisin on the agar plate, an agar well diffusion assay with gradient of nisin against Lactococcus lactis ( with two plasmids) was performed ( Supplementary Figur e 1 A). The diameter of the halos were measured (Supplementary Figure 1B). […]
(§5) the concentration of nisin is in liner relationship with diameter of the halos ( Supplementary Fi g u re 1C). According to the formula (1) , the relative activity of the peptides compared to nisin can be calculated b y the formula ( 2) .
(§6) Supplementary Figure 1. Relationship between concentration of nisin and diameter of the halos. (A) Agar well diffusion assay. Gradient concentration of nisin were made and dissolved in 30µl 0.05% acetic acid. Lactococcus lactis ( with two plasmids) was cultured overnight and diluted 250 times with GM17 agar before added to the plate. The final concentration of the cells was about 2×10^6 cells/milliliter. The plate was incubated for 1 da y. Concentrations of nisin were labeled. (B) log10 of the concentrati ons and diameters of the halo. (C) A linear curve w as made betw een t he diameters of the halo and log10s of the concentration of nisin.
(§7) (1 picture or pasted object on this page, not shown here)
(§8) Last Name a uthor 1 et al. Running Title
(§9) C = concentration of nisin d° = diameter of the halo of wild t ype […]

Bacillus cereus = experiment: Agar well diffusion assay against Bacillus strains (Supplementary Figure 8); type: cell-based; conditions: 30°C for 18 hours, BHI agar, 5 µg nisin or +2 analogue in 50 µl 0.05% acetic acid
Protocol: The antimicrobial activity of the hinge region analogs in solid media were tested by an agar well diffusion assay. The diameters of the halos were measured and the residual activity of the analogs were estimated according to the formula of the relationship between the concentration of nisin and the sizes of halos. We made use of the fact that the size of the halo is directly related to the log of nisin concentration. Of course this is an estimate of activity of the variants because any changes in diffusion of the variant bacteriocin or growth rates of indicator bacteria during the assay could also affect the size of the halo. (Table 5 and Supplementary Figure 1). The plates were shown in supplementary data (Supplementary Figures 2–8). […] And against L. lactis at 20°C, the inhibition zone was larger than nisin. […] The M. luteus grows quite fast at room temperature and only the +2 variant retained 55% of the activity of nisin.
Supplementary Figure 7.Agar well diffusion assays of hinge region analogues against Bacillus sporotherm odurans IC4 . 2 µg of peptides w ere added per w ell. The plates were incub ated at 30 ° C […]
Supplementary Figure 8.Agar well diffusion assays of hinge region analogues against 4 kinds of Bacillus strains . 5µl overnight culture was mixed with 5ml BHI agar and poured into the plate. […]

M. luteus = experiment: Agar well diffusion assay; type: cell-based, Micrococcus luteus; conditions: 20 °C; estimated from halo diameter by nisin standard curve, relative to wt
Protocol: as §1, §2, §3, §4, §5
as §6, with “nisin. […]” for “nisin.”

S. aureus = experiment: Agar well diffusion assay; type: cell-based, Staphylococcus aureus; conditions: 20 °C; estimated from halo diameter by nisin standard curve, relative to wt
Protocol: as §1, §2, §3, §4, §5
as §6, with “nisin. […]” for “nisin.”

B. sporothermodurans IC4 = experiment: Agar well diffusion assay; type: cell-based, Bacillus sporothermodurans; conditions: 30 °C; estimated from halo diameter by nisin standard curve, relative to wt
Protocol: as §1
as §2, with “B. sporothermodurans IC4 and B. cereus 4153 were first incubated with the peptides at 4°C for 2 weeks then moved to 30°C and incubated overnight.” left out
The antimicrobial activity of the hinge region analogs in solid media were tested by an agar well diffusion assay. The diameters of the halos were measured and the residual activity of the analogs were estimated according to the formula of the relationship between the concentration of nisin and the sizes of halos. […]
as §4
the concentration of nisin is in liner relationship with diameter of the halos ( Supplementary Fi g u re 1C). According to the formula (1) , the relative activity of the peptides compared to nisin can be calculated b y the formula ( 2) . […]

Micrococcus luteus = experiment: MIC in liquid culture; type: cell-based; conditions: MIC value of nisin divided by that of the analog
Protocol: as §1
(§10) The indicator strains were cultured until OD (600 nm) reached 0.5. Before MIC value test, the culture was diluted 1000 times to make the concentration of cells around 5 × 10^5 per milliliter. The test was performed using a temperature controlled plate reader [Tecan200 (Tecan Group AG)] and 96 well plate (Greiner Bio-one). 180 μl indicator strain culture mixed with 20 μl hinge region analogs with final concentration from 0.031 μg/ml–32 μg/ml was incubated at 30°C or 37°C for 18 h. OD (600 nm) was checked every 30 min. For aerobic strains, 2 min of shaking was performed before every check. The concentration of peptide without observed growth of indicator strains was considered as the MIC value.

Bacillus cereus 4147 = experiment: MIC in liquid culture; type: cell-based; conditions: MIC value of nisin divided by that of the analog
Protocol: as §1, §10

[1] = system: Bacillus cereus (L′29) 16; experiment: MIC in liquid culture; type: cell-based; conditions: MIC value of nisin divided by that of the analog
Protocol: as §1, §10

[2] = system: Enterococcus faecalis VE14089; experiment: MIC in liquid culture; type: cell-based; conditions: MIC value of nisin divided by that of the analog
Protocol: as §1, §10

Staphylococcus aureus = experiment: MIC in liquid culture; type: cell-based; conditions: MIC value of nisin divided by that of the analog
Protocol: as §1, §10

[3] = system: Streptococcus pneumoniae R6; experiment: MIC in liquid culture; type: cell-based; conditions: MIC value of nisin divided by that of the analog
Protocol: as §1, §10

Listeria monocytogenes = experiment: MIC in liquid culture; type: cell-based; conditions: MIC value of nisin divided by that of the analog
Protocol: as §1, §10

[4] = system: Lactococcus lactis MG1363; experiment: MIC in liquid culture; type: cell-based; conditions: MIC value of nisin divided by that of the analog
Protocol: as §1, §10

Bacillus cereus 4153 = experiment: MIC in liquid culture; type: cell-based; conditions: MIC value of nisin divided by that of the analog
Protocol: as §1, §10

L. monocytogenes = experiment: Agar well diffusion assay; type: cell-based, Listeria monocytogenes; conditions: estimated from halo diameter by nisin standard curve, relative to wt
Protocol: as §1, §2, §3, §4, §5, §6, §7, §8, §9

E. faecalis VE14089 = experiment: Agar well diffusion assay; type: cell-based, Enterococcus faecalis; conditions: estimated from halo diameter by nisin standard curve, relative to wt
Protocol: as §1, §2, §3, §4, §5, §6, §7, §8, §9

[5] = system: Bacillus sporothermodurans IC4; experiment: MIC in liquid culture; type: cell-based; conditions: MIC value of nisin divided by that of the analog
Protocol: as §1, §10

[6] = 20 °C, estimated from halo diameter by nisin standard curve (halo diameter vs log of nisin concentration)
[7] = 30 °C, estimated from halo diameter by nisin standard curve

Compound | Residual activity (L. lactis MG1363; [6]) [%] | Residual activity (L. lactis MG1363; [7]) [%] | Residual activity (M. luteus) [%] | Residual activity (S. aureus) [%] | Residual activity (B. sporothermodurans IC4) [%] | Residual activity of variants compared to nisin (Micrococcus luteus) [%] | Residual activity of variants compared to nisin (Bacillus cereus 4147) [%] | Residual activity of variants compared to nisin [1] [%] | Residual activity of variants compared to nisin [2] [%] | Residual activity of variants compared to nisin (Staphylococcus aureus) [%] | Residual activity of variants compared to nisin [3] [%] | Residual activity of variants compared to nisin (Listeria monocytogenes) [%] | Residual activity of variants compared to nisin [4] [%] | Residual activity of variants compared to nisin (Bacillus cereus 4153) [%] | Residual activity (L. monocytogenes; 20 °C) [%] | Residual activity (L. monocytogenes; 30 °C) [%] | Residual activity (E. faecalis VE14089; 20 °C) [%] | Residual activity (E. faecalis VE14089; 30 °C) [%] | Residual activity (E. faecalis VE14089; 37 °C) [%] | further results
C=C(NC(=O)[C@@H](NC(=O)[C@H](Cc1c[nH]cn1)NC(=O)[C@@H](NC(=O)[C@H](CO)NC(=O)[C@@H]1CS[C@@H](C)[C@H]2NC(=O)[C@H](C)NC(=O)[C@H](NC(=O)[C@H](CCCCN)NC(=O)[C@H](CCSC)NC(=O)[C@@H](NC(=O)[C@@H](NC(=O)[C@H](CC(N)=O)NC(=O)[C@@H]3CS[C@@H](C)[C@@H](NC(=O)[C@H](CCCCN)NC(=O)[C@@H]4CS[C@@H](C)[C@@H](NC(=O)[C@@H]5CSC[C@@H](NC(=O)/C(=C/C)NC(=O)[C@@H](N)[C@@H](C)CC)C(=O)N[C@@H]([C@@H](C)CC)C(=O)NC(=C)C(=O)N[C@@H](CC(C)C)C(=O)N5)C(=O)N5CCC[C@H]5C(=O)NCC(=O)N4)C(=O)NCC(=O)N[C@@H](C)C(=O)N[C@@H](CC(C)C)C(=O)N[C@@H](CCSC)C(=O)NCC(=O)N3)[C@@H](C)CC)C(C)C)[C@H](C)SC[C@H](NC2=O)C(=O)N[C@@H](Cc2c[nH]cn2)C(=O)N1)[C@@H](C)CC)C(C)C)C(=O)N[C@@H](CCCCN)C(=O)O [+2] | 140 | 114 | 55 | 22 | 236 | 25 | 50 | 25 | 30 | <6 | 25 | 50 | 25 | 50 | 139 | 114 | 144 | 88 | 101 | plate activity compared to nisin (Bacillus cereus): either equal or higher plate activity than nisin
C=C(NC(=O)[C@@H](NC(=O)[C@H](Cc1c[nH]cn1)NC(=O)[C@@H](NC(=O)[C@H](CO)NC(=O)[C@@H]1CS[C@@H](C)[C@H]2NC(=O)[C@H](C)NC(=O)[C@H](NC(=O)[C@H](CCCCN)NC(=O)[C@H](CC(N)=O)NC(=O)[C@@H]3CS[C@@H](C)[C@@H](NC(=O)[C@H](CCCCN)NC(=O)[C@@H]4CS[C@@H](C)[C@@H](NC(=O)[C@@H]5CSC[C@@H](NC(=O)/C(=C/C)NC(=O)[C@@H](N)[C@@H](C)CC)C(=O)N[C@@H]([C@@H](C)CC)C(=O)NC(=C)C(=O)N[C@@H](CC(C)C)C(=O)N5)C(=O)N5CCC[C@H]5C(=O)NCC(=O)N4)C(=O)NCC(=O)N[C@@H](C)C(=O)N[C@@H](CC(C)C)C(=O)N[C@@H](CCSC)C(=O)NCC(=O)N3)[C@H](C)SC[C@H](NC2=O)C(=O)N[C@@H](Cc2c[nH]cn2)C(=O)N1)[C@@H](C)CC)C(C)C)C(=O)N[C@@H](CCCCN)C(=O)O [−1] | 33 | 17 | 0 | 16 | 522 | <25 | <13 | <13 | <6 | 3 | 25 | <25 | 3 | <13 | 19 | 29 | 21 | 72 | 140 | Residual activity of variants compared to nisin [5]: 50%
